Measurements as given in US20250313563A1, “GLYCOGEN SYNTHASE KINASE 3 INHIBITORS AND USES THEREOF” (The Broad Institute, Inc., priority 2022, published 2025).
Like-named read-outs stand apart in the source and are kept apart here.

How the values were obtained:
[1] = molecular target: GSK3α (GST-full length GSK3α) (Homo sapiens (Human), UniProt P49840); assay: GSK3α TR-FRET kinase assay; type: biochemical
How it was run: (§1)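 Compound was preincubated 30 min with 1 nM GST-GSK3 enzyme. Reaction ran 100 min at ambient temperature in Tris pH 7.5/MgCl2 with 200 nM biotinylated pS645-glycogen synthase 631-650 peptide and ATP (4 μM GSK3α, 2 μM GSK3b, or 1 mM). The EDTA-stopped reaction was read by TR-FRET (Tb-anti-pSer641/streptavidin-d2), and IC50s were fitted.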

[2] = molecular target: GSK3b (GST-full length GSK3b) (Homo sapiens (Human), UniProt P49841); assay: GSK3b TR-FRET kinase assay; type: biochemical
Sequence of GSK3b (GST-full length GSK3b) (P49841 whole entry): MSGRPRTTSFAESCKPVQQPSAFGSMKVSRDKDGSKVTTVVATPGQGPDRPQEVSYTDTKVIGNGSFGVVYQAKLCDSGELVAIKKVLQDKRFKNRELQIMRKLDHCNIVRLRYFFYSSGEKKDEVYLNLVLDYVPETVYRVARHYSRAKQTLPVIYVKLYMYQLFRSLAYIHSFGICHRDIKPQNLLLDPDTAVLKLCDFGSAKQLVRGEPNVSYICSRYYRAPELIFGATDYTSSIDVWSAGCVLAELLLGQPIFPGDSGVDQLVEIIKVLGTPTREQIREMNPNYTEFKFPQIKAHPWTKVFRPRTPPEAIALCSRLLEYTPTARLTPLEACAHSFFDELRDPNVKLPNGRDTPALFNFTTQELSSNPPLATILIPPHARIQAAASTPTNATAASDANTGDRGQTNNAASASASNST
How it was run: as §1

[3] = 1 nM GSK3α, 4 μM ATP, 30 minute preincubation, Table 16, read-out: GSK3-A TR-FRET BIOCHEMICAL (TR-FRET)
[4] = read-out: GSK3-A (TR-FRET 1 mM ATP), GMean, IC50, 1 mM ATP, geometric mean
[5] = 1 nM GSK3b, 2 μM ATP, 30 minute preincubation, Table 16, read-out: GSK3-B TR-FRET BIOCHEMICAL (TR-FRET)
[6] = read-out: GSK3-B (TR-FRET 1 mM ATP), GMean, IC50, 1 mM ATP, geometric mean
[7] = 1 nM GSK3α, 4 μM ATP, 30 minute preincubation, read-out: GSK3-A TR-FRET BIOCHEMICAL (TR-FRET), IC50
[8] = 1 nM GSK3b, 2 μM ATP, 30 minute preincubation, read-out: GSK3-B TR-FRET BIOCHEMICAL (TR-FRET), IC50
[9] = 1 nM GSK3α, 4 μM ATP, 30 minute preincubation, geometric mean, read-out: GSK3-A TR-FRET BIOCHEMICAL (TR-FRET), GMean, IC50
[10] = 1 nM GSK3b, 2 μM ATP, 30 minute preincubation, geometric mean, read-out: GSK3-B TR-FRET BIOCHEMICAL (TR-FRET), GMean, IC50

Sequence of GSK3α (GST-full length GSK3α) (P49840 whole entry): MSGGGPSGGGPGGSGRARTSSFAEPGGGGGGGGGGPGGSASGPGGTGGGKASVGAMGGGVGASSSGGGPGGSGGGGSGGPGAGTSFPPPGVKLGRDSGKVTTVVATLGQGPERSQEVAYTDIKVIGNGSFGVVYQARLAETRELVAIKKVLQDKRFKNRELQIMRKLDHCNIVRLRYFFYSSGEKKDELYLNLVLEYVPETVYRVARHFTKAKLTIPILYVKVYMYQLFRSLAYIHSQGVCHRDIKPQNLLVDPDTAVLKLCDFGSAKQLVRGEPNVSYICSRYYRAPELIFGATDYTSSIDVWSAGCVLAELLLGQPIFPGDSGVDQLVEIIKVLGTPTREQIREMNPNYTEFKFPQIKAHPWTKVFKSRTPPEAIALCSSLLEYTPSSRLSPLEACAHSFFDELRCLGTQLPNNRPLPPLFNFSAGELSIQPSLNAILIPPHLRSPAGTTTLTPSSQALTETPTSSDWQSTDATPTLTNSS

IC50 [1, 9]	IC50 [2, 10]	Structure (SMILES)	also measured
		CCC1(c2cccc(-c3c(F)cncc3OC)c2)C2=C(Nc3n[nH]cc31)C(F)C(C)(C)CC2=O (stereo not drawn) [Compound 948547, 4-ethyl-8-fluoro-4-(3-(3-fluoro-5-methoxypyridin-4-yl)phenyl)-7,7-dimethyl-2,4,6,7,8,9-hexahydro-SH-pyrazolo[3,4-b]quinolin-5-one]	IC50 [1, 3]: ≤ 100 nM; IC50 [1, 4]: 100 to 1000 nM; IC50 [2, 5]: ≤ 100 nM; IC50 [2, 6]: 1000 to 5000 nM
		CCC1(c2cccc(-c3c(F)cncc3OC)c2)C2=C(Nc3n[nH]cc31)C(F)C(C)(C)CC2=O (stereo not drawn) [Compound 948548, 4-ethyl-8-fluoro-4-(3-(3-fluoro-5-methoxypyridin-4-yl)phenyl)-7,7-dimethyl-2,4,6,7,8,9-hexahydro-SH-pyrazolo[3,4-b]quinolin-5-one]	IC50 [1, 3]: ≤ 100 nM; IC50 [2, 5]: 100 to 1000 nM
		CCC1(c2cccc(-c3c(F)cncc3OC)c2)C2=C(CN(Cc3ccccc3)C2=O)Nc2n[nH]cc21 (stereo not drawn) [Compound 948550]	IC50 [1, 7]: ≤ 100 nM; IC50 [2, 8]: 100 to 1000 nM
		CCC1(c2cccc(-c3ccnc4c3CCCC4)c2)C2=C(CN(Cc3ccccc3)C2=O)Nc2n[nH]cc21 (stereo not drawn) [Compound 948551]	IC50 [1, 7]: ≤ 100 nM; IC50 [2, 8]: 100 to 1000 nM
		CC[C@]1(c2cccc(-c3ccnc4c3CCCC4)c2)C2=C(CN(Cc3ccccc3)C2=O)Nc2n[nH]cc21 [Compound 948552]	IC50 [1, 7]: 100 to 1000 nM; IC50 [2, 8]: > 5000 nM
		CCC1(c2cccc(C(F)(F)C(F)(F)F)c2)C2=C(CC(C)(C)CC2=O)Nc2n[nH]cc21 (stereo not drawn) [Compound 948615]	IC50 [1, 3]: ≤ 100 nM; IC50 [2, 5]: ≤ 100 nM
> 5000 nM	> 5000 nM	CCC1(c2cccc(-c3ccnc4cc(F)c(F)cc34)c2)C2=C(CC(C)(C)NC2=O)Nc2n[nH]cc21 (stereo not drawn) [Compound 948638]	
≤ 100 nM	100 to 1000 nM	CCc1cnccc1-c1cccc([C@]2(CC)C3=C(CC(C)(C)NC3=O)Nc3n[nH]cc32)c1 [Compound 948639]	
> 5000 nM	> 5000 nM	CCC1(c2cccc(-c3ccnc(C)c3)c2)C2=C(CC3(CCCC3)NC2=O)Nc2n[nH]cc21 (stereo not drawn) [Compound 948641]	
100 to 1000 nM	1000 to 5000 nM	CC[C@@]1(c2cccc(-c3ccncc3C3CC3)c2)C2=C(CC(C)(C)NC2=O)Nc2n[nH]cc21 [Compound 948642]	
> 5000 nM	> 5000 nM	CC[C@@]1(c2cccc(-c3ccncc3OC3CC3)c2)C2=C(CC(C)(C)NC2=O)Nc2n[nH]cc21 [Compound 948643]	
100 to 1000 nM	> 5000 nM	CC[C@@]1(c2cccc(-c3ccnc4cc(Cl)c(C)cc34)c2)C2=C(CC(C)(C)NC2=O)Nc2n[nH]cc21 [Compound 948645]	
> 5000 nM	> 5000 nM	CC[C@@]1(c2cccc(-c3cc(OC)nc4ccccc34)c2)C2=C(CC(C)(C)NC2=O)Nc2n[nH]cc21 [Compound 948647]	
> 5000 nM	> 5000 nM	CCC1(c2cccc(-c3ccncc3C)c2)C2=C(CC3(CCOC3)NC2=O)Nc2n[nH]cc21 (stereo not drawn) [Compound 948648]	
> 5000 nM	> 5000 nM	CCC1(c2cccc(-c3ccnc4cc(OC)ccc34)c2)C2=C(CC(C)(C)NC2=O)Nc2n[nH]cc21 (stereo not drawn) [Compound 948649]	
> 5000 nM	> 5000 nM	CC[C@@]1(c2cccc(-c3ccnc4c(Cl)cccc34)c2)C2=C(CC(C)(C)NC2=O)Nc2n[nH]cc21 [Compound 948650]	
> 5000 nM	> 5000 nM	CCC1(c2cccc(-c3ccnc4ccc(C)cc34)c2)C2=C(CC(C)(C)NC2=O)Nc2n[nH]cc21 (stereo not drawn) [Compound 948651]	
≤ 100 nM	≤ 100 nM	CCC1(c2cccc(-c3ccnc(N4CCOCC4)c3)c2)C2=C(CC(C)(C)NC2=O)Nc2n[nH]cc21 (stereo not drawn) [Compound 948653]	
> 5000 nM	> 5000 nM	CCC1(c2cccc(-c3ccnc4cc(Cl)c(C)cc34)c2)C2=C(CC(C)(C)NC2=O)Nc2n[nH]cc21 (stereo not drawn) [Compound 948654]	
> 5000 nM	> 5000 nM	CCC1(c2cccc(-c3ccncc3OC3CC3)c2)C2=C(CC(C)(C)NC2=O)Nc2n[nH]cc21 (stereo not drawn) [Compound 948656]	
> 5000 nM	> 5000 nM	CCc1cnccc1-c1cccc(C2(CC)C3=C(CC(C)(C)NC3=O)Nc3n[nH]cc32)c1 (stereo not drawn) [Compound 948657]	
> 5000 nM	> 5000 nM	CC[C@@]1(c2cccc(-c3ccnc4ccc(C)cc34)c2)C2=C(CC(C)(C)NC2=O)Nc2n[nH]cc21 [Compound 948658]	
> 5000 nM	> 5000 nM	CCC1(c2cccc(-c3ccnc4c(Cl)cccc34)c2)C2=C(CC(C)(C)NC2=O)Nc2n[nH]cc21 (stereo not drawn) [Compound 948659]	

IC50 [1, 9]	IC50 [2, 10]	Structure (SMILES)	also measured
≤ 100 nM	100 to 1000 nM	CCC1(c2cccc(-c3ccnc4cc(OC)ccc34)c2)C2=C(CC(C)(C)NC2=O)Nc2n[nH]cc21 (stereo not drawn) [Compound 948661]	
> 5000 nM	> 5000 nM	CCC1(c2cccc(-c3ccnc(N4CCCCC4)c3)c2)C2=C(CC(C)(C)NC2=O)Nc2n[nH]cc21 (stereo not drawn) [Compound 948663]	
≤ 100 nM	≤ 100 nM	CCC1(c2cccc(-c3cc(C)ncc3F)c2)C2=C(CC(C)(C)NC2=O)Nc2n[nH]c(C)c21 (stereo not drawn) [Compound 948761]	
≤ 100 nM	100 to 1000 nM	CCC1(c2cccc(OC)c2)C2=C(CC(C)(C)NC2=O)Nc2n[nH]c(C)c21 (stereo not drawn) [Compound 948763]	
≤ 100 nM	100 to 1000 nM	CCC1(c2cccc(Oc3ncccn3)c2)C2=C(CC(C)(C)NC2=O)Nc2n[nH]cc21 (stereo not drawn) [Compound 948764]	
≤ 100 nM	≤ 100 nM	CCC1(c2cccc(-c3cc(C)nnc3C)c2)C2=C(CC(C)(C)NC2=O)Nc2n[nH]c(C)c21 (stereo not drawn) [Compound 948765]	
≤ 100 nM	≤ 100 nM	CCC1(c2cccc(-c3cnn(C)c3)c2)C2=C(CC(C)(C)NC2=O)Nc2n[nH]c(Cl)c21 (stereo not drawn) [Compound 948767]	
≤ 100 nM	≤ 100 nM	CCC1(c2cccc(-c3cn(C)nc3C)c2)C2=C(CC(C)(C)NC2=O)Nc2n[nH]c(Cl)c21 (stereo not drawn) [Compound 948768]	
100 to 1000 nM	100 to 1000 nM	CC[C@]1(c2cccc(-c3ccnc4c3CCC4)c2)C2=C(CC(C)(C)NC2=O)Nc2n[nH]c(C(F)(F)F)c21 [Compound 948769]	
100 to 1000 nM	100 to 1000 nM	CC[C@]1(c2cccc(-c3ccncc3F)c2)C2=C(CC(C)(C)NC2=O)Nc2[nH]nc(C(F)(F)F)c21 [Compound 948770]	
≤ 100 nM	≤ 100 nM	CC[C@]1(c2cccc(S(=O)(=O)C3CC3)c2)C2=C(CC(C)(C)NC2=O)Nc2[nH]nc(C(F)(F)F)c21 [Compound 948771]	IC50 [1, 4]: ≤ 100 nM; IC50 [2, 6]: 100 to 1000 nM
1000 to 5000 nM	> 5000 nM	CCC1(c2cccc(-c3ccnc(C)c3)c2)C2=C(CC(C)(C)NC2=O)Nc2n[nH]c(C(F)(F)F)c21 (stereo not drawn) [Compound 948773]	
≤ 100 nM	≤ 100 nM	CC[C@@]1(c2cccc(-c3ccnc(C)c3)c2)C2=C(CC(C)(C)NC2=O)Nc2n[nH]c(C(F)(F)F)c21 [Compound 948774]	
≤ 100 nM	≤ 100 nM	CC[C@@]1(c2cccc(-c3cnn4c3CCCC4)c2)C2=C(CC(C)(C)NC2=O)Nc2[nH]nc(C(F)(F)F)c21 [Compound 948775]	IC50 ([1]; GSK3-A (TR-FRET 1 mM ATP), GMean, IC50, 1 mM ATP, geometric mean): ≤ 100 nM; IC50 ([2]; GSK3-B (TR-FRET 1 mM ATP), GMean, IC50, 1 mM ATP, geometric mean): 100 to 1000 nM
100 to 1000 nM	100 to 1000 nM	CCC1(c2cccc(S(=O)(=O)C3CC3)c2)C2=C(CC(C)(C)NC2=O)Nc2n[nH]c(C(F)(F)F)c21 (stereo not drawn) [Compound 948776]	
≤ 100 nM	≤ 100 nM	CC[C@@]1(c2cccc(-c3ccncc3F)c2)C2=C(CC(C)(C)NC2=O)Nc2[nH]nc(C(F)(F)F)c21 [Compound 948777]	
		CCC1(c2cccc(C3CN(C(C)=O)C3)c2)C2=C(CC(C)(C)CC2=O)Nc2n[nH]cc21 (stereo not drawn) [Compound 948779]	IC50 [1, 3]: 1000 to 5000 nM; IC50 [2, 5]: > 5000 nM
		CCC1(c2cccc(OCC(F)F)c2)C2=C(CC(C)(C)CC2=O)Nc2n[nH]cc21 (stereo not drawn) [Compound 948793]	IC50 [1, 3]: ≤ 100 nM; IC50 [1, 4]: 100 to 1000 nM; IC50 [2, 5]: ≤ 100 nM; IC50 [2, 6]: > 5000 nM
1000 to 5000 nM	> 5000 nM	CC[C@@]1(c2cccc(-c3ccnc4c(F)cccc34)c2)C2=C(CC(C)(C)NC2=O)Nc2n[nH]cc21 [Compound 948813]	
> 5000 nM	> 5000 nM	CC[C@@]1(c2cccc(-c3cnn(C)c3C#N)c2)C2=C(CC(C)(C)NC2=O)Nc2n[nH]cc21 [Compound 948814]	
≤ 100 nM	100 to 1000 nM	CC[C@]1(c2cccc(-c3cnn(C)c3C(F)(F)F)c2)C2=C(CC(C)(C)NC2=O)Nc2n[nH]cc21 [Compound 948815]	IC50 [1, 4]: 100 to 1000 nM; IC50 [2, 6]: > 5000 nM
> 5000 nM	> 5000 nM	CC[C@@]1(c2cccc(-c3cnn(C(F)F)c3)c2)C2=C(CC(C)(C)NC2=O)Nc2n[nH]cc21 [Compound 948816]	
> 5000 nM	> 5000 nM	CC[C@@]1(c2cccc(-c3ccnc4c3cnn4C)c2)C2=C(CC(C)(C)NC2=O)Nc2n[nH]cc21 [Compound 948817]	
